Source: patent US9283243B2, “CD36 inhibition to control obesity and insulin sensitivity” (CORNELL UNIVERSITY CORNELL CENTER FOR TECHNOLOGY, …, priority 2010, dated 2016)
“Also recorded” adds a separate entry of the source. Values belong to the compound of their own block, whether it stands above or below them. Square brackets hold non-standard residues; d marks the D form. Peptide text beside a SMILES is read from it. dTrp(2-Me) = Cc1[nH]c2ccccc2c1C[C@@H](N)C(=O)O

Tests used:
CD36 [1] = conditions: literature, cited from earlier work
CD36 [2] = target: T1, CD36 (Homo sapiens, UniProt P16671); conditions: Demers et al. 2004, cited from earlier work
CD36 mRNA [3] = assay: CD36 siRNA transfection in C8-D1A cells, CD36 mRNA levels; type: cell-based; conditions: 20 nM siRNA, 24h after transfection, N=4, vs negative control
Method: FIG. 4. Efficacy of CD36 siRNA. 20 nM siRNA either singly or in combination were transfected in C8-D1A cells. CD36 mRNA levels were measured 24h later. N=4. Negative controls were adjusted to the amount of siRNA. **p<0.01, ***p<0.001 vs correponding control.
CD36 was inhibited using an RNAi technique. 20 nM siRNA either singly or in combination were transfected in C8-D1A cells. CD36 mRNA levels were measured 24h later. N=4. Negative controls were adjusted to the amount of siRNA. **p<0.01, ***p<0.001 vs correponding control.

[4] = test system: hyperlipidemic ApoE KO (AKO) mice; assay: Fasting blood glucose and glucose tolerance test in SAB-treated high fat fed ApoE KO mice; type: in vivo, mouse
Text: (§1) FIG. 1A-1I. In vivo effect of chronic SAB treatment on physiological responses. (A), Body weight changes in ApoE KO mice fed a high fat diet for 8 weeks in vehicle (Veh)- and salvianolic acid (SAB)-treated mice. (B), Pictures were taken at the end of 8 weeks of high fat diet. […] (C), Fasting blood glucose levels. (D), Glucose tolerance test. (E), Area under curve (AUC). (F), CD36 mRNA levels in peritoneal macrophages and spleen from vehicle and SAB treated mice. (G), Measurement of lipid content from blood vessels. Lipid extraction and determination was performed using published methods (Kim et al., 2008). (H), Fold increases of plasma cholesterol levels 4 and 8 weeks after high fat diet. (I), Oil red O staining in the liver of vehicle and SAB treated mice. […] Number in parentheses indicates number of animals for the measurements.
SAB treatment improves insulin sensitivity. Fasting blood glucose levels were similar in SAB-treated and control mice at zero, four, and eight weeks of treatment (FIG. 1C). However, when mice were challenged with glucose tolerance test (an intraperitoneal injection of […]), blood glucose was cleared much faster in SAB-treated mice (45 minutes after challenge, initial blood glucose spike reduced by 75%) relative to vehicle-treated mice (45 minutes after challenge, initial spike in blood glucose reduced by less than 10%; FIG. 1D).

CD36 [5] = target: T1, CD36; assay: High throughput screen for CD36 antagonists
Text: Candidate modulator compounds from libraries of synthetic or natural compounds can be screened by methods known in the art (see Chinese patent number ZL200510072269.1, Publication No: CN1868546, and Chinese patent application number 200910147634.9, each hereby incorporated in its entirety by reference). Synthetic compound libraries are commercially available from a number of companies including Maybridge Chemical Co. (Trevillet, Cornwall, UK), Comgenex (Princeton, N.J.), Brandon Associates (Merrimack, N.H.), and Microsource (New Milford, Conn.). Combinatorial libraries are available or can be prepared according to known synthetic techniques. Alternatively, libraries of natural compounds in the form of bacterial, fungal, plant and animal extracts are available from e.g., Pan Laboratories (Bothell, Wash.) or MycoSearch (NC), or are readily producible by methods well known in the art. Additionally, natural and synthetically produced libraries and compounds can be further modified through conventional chemical and biochemical techniques.
The use of high throughput screening has allowed the identification of compounds that potently antagonize CD36 in vitro. Following isolation of CD36 antagonists by in vitro testing, experiments can be conducted to test the efficacy in vivo. […]

CD36 mRNA [6] = assay: CD36 gene expression in peritoneal macrophages and spleen from vehicle and SAB-treated mice; type: in vivo, mouse; conditions: SAB-treated vs vehicle mice
Text: as §1
SAB treatment reduces CD36 expression in peritoneal macrophages. Since CD36 is expressed in monocytes and macrophages, CD36 gene expression was compared in peritoneal macrophages and the spleen, a peripheral organ that serves as a reservoir of monocytes, from vehicle and SAB-treated mice. CD36 mRNA levels were reduced in both peritoneal and spleen macrophages of SAB-treated mice (FIG. 1F). […]

[7] = test system: ApoE KO mouse macrophages; assay: Foam cell assay / lipid accumulation in primary macrophages incubated with oxLDL; type: cell-based; conditions: 48 h, vs oxLDL alone
Method: FIG. 5. Effects of SAB on lipid accumulation in ApoE KO mouse macrophages. Primary macrophages were seeded in 4 chamber slides and then incubated with 20 μg/ml oxLDL and/or different concentrations of SAB for 48 h. (A-D) Lipids were stained with oil red O and examined by microscopy; representative images are shown. (A), vehicle only; (B), 25 μM SAB treatment; (C), 20 μg/ml oxLDL; (D), 20 μg/ml oxLDL+25 μM SAB. Scale bar, 50 μm; higher magnification micrographs of oil red O stains were shown in upper-right of each picture. (E-F), Quantification for foam cell assay in primary macrophage. White bar, macrophages incubated with vehicle only (no oxLDL or SAB); black bar, incubated with 20 μg/ml oxLDL; grey bars, incubated with 20 μg/ml oxLDL plus 10, 25 or 100 μM SAB (SAB concentration listed below each bar); (E), Degree of lipid accumulation measured as intensity of integrated optical density; (F), Foam cell average area compared to average area of control macrophages incubated with vehicle. Control (vehicle-treated) average individual macrophage cell size/ area was normalized as 1; macrophages treated with oxLDL show increased individual relative cell area resulting from lipid internalization (black bar); SAB treatment (grey bars) reduced lipid internalization and relative cell size/area. n=3-6 cells/group. **,***p<0.01, 0.001 compared with no oxLDL(0).
SAB reduces lipid accumulation in ApoE KO mouse macrophages. Primary macrophages were isolated from ApoE KO mice and incubated with oxidized low density lipoproteins (oxLDL) and/or different concentrations of SAB for 48 h, then stained for lipid accumulation. […] Thus, CD36 antagonists can prevent accumulation of fat and lipids in cells subject to lipid-rich environments.
SAB reduces lipid accumulation and foam cell formation. Primary macrophages cultured from ApoE KO mice show a low intensity of optical density (IOD) commensurate with small cellular area (FIGS. 5E and 5F, white bar). […]

[8] = test system: hyperlipidemic ApoE KO (AKO) mice; assay: Chronic SAB treatment of ApoE KO mice fed a high fat diet for 8 weeks: body weight, fat, cholesterol, liver and vessel lipid; type: in vivo, mouse; conditions: for average visceral fat weight: p<0.001
Text: as §1
FIG. 2A-2B. Visceral fat weight in high fat fed ApoE KO mice treated with SAB (100 mg/kg) for 8 weeks. 100 mg/kg SAB or vehicle (veh) was injected every other day by subcutaneous injection. n=8-10/group. […] (B), SAB reduced visceral fat weight from average=81 mg/animal to average=32 mg/animal. ***, p<0.001.
Chronic SAB treatment in hyperlipidemic ApoE KO (AKO) mice reduces weight gain and visceral fat accumulation. […] Feeding a high fat diet to the ApoE KO mice for 8 weeks increases plasma cholesterol levels approximately 5 fold (Kim et al., 2008). Six week old male ApoE KO (HL AKO) mice were fed a high fat diet for 8 weeks with or without SAB (100 mg/kg, subcutaneously every other day). […] The difference in weight between the groups was apparent by the 3rd week of treatment (FIG. 1A). […] Thus, SAB reduces body weight and fat accumulation, particularly visceral/abdominal fat accumulation and liver fat deposits, and also lowers plasma cholesterol.
Visceral fat weight in high fat fed ApoE KO mice treated with either vehicle or SAB (100 mg/kg) for 8 weeks. 100 mg/kg SAB or vehicle (veh) was injected every other day by subcutaneous injection. n=8-10 mice/group, ***, p<0.001. […] SAB reduced visceral fat weight by 60% (32 mg average visceral fat weight in SAB treated mice versus 81 mg average visceral fat weight in controls; FIG. 2B). This provides further evidence that CD36 antagonists can reduce fat accumulation, particularly visceral fat accumulation.

CD36 [9] = target: T1, CD36; conditions: Xu, Y et al., Anal Biochem 2010; cited from earlier work
[10] = 20 μg/ml oxLDL plus 10, 25 or 100 μM SAB
[11] = SAB 100 mg/kg s.c. every other day, high fat diet 8 weeks

T1 sequence (P16671 whole entry): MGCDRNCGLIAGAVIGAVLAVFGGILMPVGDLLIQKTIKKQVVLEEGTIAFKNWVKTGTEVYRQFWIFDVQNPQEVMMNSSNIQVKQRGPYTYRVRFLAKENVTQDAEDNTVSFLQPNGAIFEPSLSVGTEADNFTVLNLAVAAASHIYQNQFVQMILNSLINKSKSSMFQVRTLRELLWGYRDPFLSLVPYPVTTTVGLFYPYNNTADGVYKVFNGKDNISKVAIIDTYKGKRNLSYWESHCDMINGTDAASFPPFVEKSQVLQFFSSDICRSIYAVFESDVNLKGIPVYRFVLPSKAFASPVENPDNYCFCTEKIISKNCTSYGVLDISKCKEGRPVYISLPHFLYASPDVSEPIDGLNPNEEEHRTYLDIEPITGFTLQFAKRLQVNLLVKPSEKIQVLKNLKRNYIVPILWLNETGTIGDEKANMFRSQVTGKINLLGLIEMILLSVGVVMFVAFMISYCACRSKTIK

Compound: Cc1c(C)c2c(c(C)c1O)CC[C@@](C)(CCC[C@H](C)CCC[C@H](C)CCCC(C)C)O2 [α-tocopherol]
uptake of oxLDLs into macrophages (CD36 [1]): can reduce | expression of CD36 (CD36 [1]; macrophages): can reduce

Compound: Cc1[nH]c2ccccc2c1C[C@@H](NC(=O)[C@@H](N)Cc1cnc[nH]1)C(=O)N[C@@H](C)C(=O)N[C@@H](Cc1c[nH]c2ccccc12)C(=O)N[C@H](Cc1ccccc1)C(=O)N[C@@H](CCCCN)C(N)=O [hexarelin] (H-H[dTrp(2-Me)]AW[dF]K-NH2)
binding to CD36 receptors (CD36 [2]): binds | CD36-mediated uptake of oxLDLs (CD36 [2]; binding site competition): blocks

Compound: MSS202777: CD36 siRNA, exon11, SEQ ID NO: 5 and 6 (chain 1 ACACCAUAAGAUGUACAGUUAUUGG; chain 2 CCAAUAACUGUACAUCUUAUGGUGU; chemistry not given here)
CD36 gene expression (CD36 mRNA levels) (CD36 mRNA [3]): reduced CD36 gene expression significantly

Compound: MSS202775: CD36 siRNA from exon9, SEQ ID NO: 1 and 2 (chain 1 UAGCUUGGCCAAUAGGACAAAUUCC; chain 2 GGAAUUUGUCCUAUUGGCCAAGCUA; chemistry not given here)
CD36 gene expression (CD36 mRNA levels) (CD36 mRNA [3]): reduced CD36 gene expression significantly | CD36 gene expression (CD36 mRNA levels) (CD36 mRNA [3]; listed as siRNA 75): most effective

CD36 antagonist identification in high throughput screen (CD36 [5]): identified as a CD36 antagonist
Compound: O=C(/C=C/c1ccc(O)c2c1[C@H](C(=O)O[C@H](Cc1ccc(O)c(O)c1)C(=O)O)C(c1ccc(O)c(O)c1)O2)O[C@@H](Cc1ccc(O)c(O)c1)C(=O)O (stereo in doubt) [SAB, salvianolic acid B]
reduction of initial blood glucose spike in glucose tolerance test ([4]; 45 minutes after challenge, intraperitoneal injection of 1.5 mg glucose/kg, vehicle less than 10%): 75% | AUCglucose (glucose area under the curve) in glucose tolerance test ([4]; SAB-treated vs vehicle-treated mice): significant reduction | fasting blood glucose levels vs control mice ([4]; zero, four, and eight weeks of treatment): similar | CD36 mRNA levels in peritoneal macrophages (CD36 mRNA [6]): reduced | CD36 mRNA levels in spleen macrophages (CD36 mRNA [6]): reduced | lipid accumulation (oil red O staining) ([7]; 20 μg/ml oxLDL + 25 μM SAB): significantly reduced lipid accumulation | lipid accumulation as intensity of optical density (IOD) [7, 10]: significantly reduced | relative cell area (foam cell average area) [7, 10]: significantly reduced | reduction of visceral fat weight ([8]; SAB 100 mg/kg s.c. every other day, 8 weeks, vs controls): 60% | average visceral fat weight ([8]; SAB 100 mg/kg s.c. every other day, 8 weeks, controls 81 mg): 32 mg | average visceral fat weight ([8]; SAB 100 mg/kg s.c. every other day, 8 weeks, vehicle 81 mg/animal): 32 mg/animal | fat deposition in the liver (Oil red O staining) [8, 11]: profoundly reduced; also recorded: significantly reduced | leaner compared to vehicle treated ApoE KO mice [8, 11]: 17% | abdominal fat accumulation ([8]; SAB 100 mg/kg s.c. every other day, high fat diet 8 weeks, physical inspection): Reduction in abdominal fat was evident; also recorded: substantially reduced; also recorded: either minimal or absent | plasma cholesterol levels ([8]; SAB 100 mg/kg s.c. every other day, high fat diet, 4 and 8 weeks): significantly reduced | rate of weight gain (weekly body weight) ([8]; SAB 100 mg/kg subcutaneously every other day, high fat diet 8 weeks, vs vehicle): significantly reduced | lipid content in the aorta and extended vessels ([8]; preliminary analysis, SAB-treated vs vehicle mice): trend toward lipid content reduction

Compound: O=C(/C=C/c1ccccc1)c1c[nH]c2ccccc12 [3-cinnamoyl indole]
CD36 antagonist identification through high-throughput screening (CD36 [9]): identified

Compound: CCCCCc1c2[n+](cc3c(OC)c(OC)ccc13)CCc1cc3c(cc1-2)OCO3 [13 pentyl berberine]
CD36 antagonist identification through high-throughput screening (CD36 [9]): identified

Compound: MSS202776: CD36 siRNA, exon7, SEQ ID NO: 3 and 4 (chain 1 CUUGUUUGGAACACAGAAGACUUGG; chain 2 CCAAGUCUUCUAUGUUCCAAACAAG; chemistry not given here)
CD36 gene expression (CD36 mRNA levels) (CD36 mRNA [3]): reduced CD36 gene expression significantly
